ChEMBL document CHEMBL5316343, “Design, Synthesis, and Biological Evaluation of a Potent Dual EZH2-BRD4 Inhibitor for the Treatment of Some Solid Tumors” (J Med Chem, 2023)
The source made the active and inactive calls. No cut-off for these calls is given here.

Tests used:
MDA-MB-231 [1] = assay: Inhibition of cell proliferation in human MDA-MB-231 cells assessed as decrease in c-Myc protein level at 5 uM incubated for 48 hrs by IHC analysis; assay type: functional, cell-based
BXPC-3 [2] = assay: Inhibition of colony formation in human BXPC-3 cells assessed as reduction in colony size at 2.5 uM incubated for 10 to 14 days by crystal violet staining based analysis; assay type: functional, cell-based; settings: time 10-14 day
MDA-MB-231 [3] = assay: Inhibition of colony formation in human MDA-MB-231 cells assessed as reduction in colony size at 2.5 uM incubated for 10 to 14 days by crystal violet staining based analysis; assay type: functional, cell-based; settings: time 10-14 day
MDA-MB-231 [4] = assay: Inhibition of colony formation in human MDA-MB-231 cells assessed as reduction in number of cell colonies at 0.1 to 2.5 uM incubated for 10 to 14 days in the presence of JQ1 by crystal violet staining based analysis; assay type: functional; settings: dose 0.1-2.5 µM, time 10-14 day
BXPC-3 [5] = assay: Induction of apoptosis in human BXPC-3 cells assessed as necrotic cells at 5 uM incubated for 48 hrs by Annexin V-FITC/PI staining based flow cytometric analysis (reference value: 1.65 %); assay type: functional
MDA-MB-231 [6] = assay: Induction of apoptosis in human MDA-MB-231 cells assessed as early apoptotic cells at 5 uM incubated for 48 hrs by Annexin V-FITC/PI staining based flow cytometric analysis (reference value: 0.69%); assay type: functional
MDA-MB-231 [7] = assay: Induction of apoptosis in human MDA-MB-231 cells assessed as late apoptotic cells at 5 uM incubated for 48 hrs by Annexin V-FITC/PI staining based flow cytometric analysis (reference value: 1.06%); assay type: functional
MDA-MB-231 [8] = assay: Induction of apoptosis in human MDA-MB-231 cells assessed as viable cells at 5 uM incubated for 48 hrs by Annexin V-FITC/PI staining based flow cytometric analysis (reference value: 97.63%); assay type: functional; settings: read-out: Activity
[9] = target: T1, Histone-lysine N-methyltransferase EZH1 (Homo sapiens, UniProt Q92800); assay: Inhibition of EZH1 (unknown origin) by radiometric assay
T1 sequence (Q92800 whole entry): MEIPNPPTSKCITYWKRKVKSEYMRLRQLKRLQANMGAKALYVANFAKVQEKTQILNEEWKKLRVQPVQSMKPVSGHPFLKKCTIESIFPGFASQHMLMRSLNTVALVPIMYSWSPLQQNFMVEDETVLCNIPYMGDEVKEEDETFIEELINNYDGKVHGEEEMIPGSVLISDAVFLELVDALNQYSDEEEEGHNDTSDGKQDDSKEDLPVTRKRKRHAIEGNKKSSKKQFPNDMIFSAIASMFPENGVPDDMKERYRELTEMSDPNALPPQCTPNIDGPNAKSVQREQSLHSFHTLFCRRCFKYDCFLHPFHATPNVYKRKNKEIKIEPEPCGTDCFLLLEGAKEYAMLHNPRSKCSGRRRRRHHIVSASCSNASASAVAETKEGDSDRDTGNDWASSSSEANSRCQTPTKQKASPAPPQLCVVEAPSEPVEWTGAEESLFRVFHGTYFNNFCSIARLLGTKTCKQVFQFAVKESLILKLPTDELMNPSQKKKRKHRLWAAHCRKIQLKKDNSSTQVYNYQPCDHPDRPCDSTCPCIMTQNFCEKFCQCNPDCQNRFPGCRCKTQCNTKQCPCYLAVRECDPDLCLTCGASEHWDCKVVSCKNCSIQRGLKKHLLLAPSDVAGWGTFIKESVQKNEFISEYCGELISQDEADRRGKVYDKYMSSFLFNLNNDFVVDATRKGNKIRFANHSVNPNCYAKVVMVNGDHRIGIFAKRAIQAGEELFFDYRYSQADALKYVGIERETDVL

BXPC-3 [10] = assay: Inhibition of colony formation in human BXPC-3 cells assessed as reduction in colony size at 0.1 to 2.5 uM incubated for 10 to 14 days in the presence of JQ1 by crystal violet staining based analysis; assay type: functional, cell-based; settings: dose 0.1-2.5 µM, time 10-14 day
[11] = target: T2, Histone-lysine N-methyltransferase EZH2 (Homo sapiens, UniProt Q15910); assay: Inhibition of EZH2 in human MDA-MB-231 cells assessed as increase in H3K27ac level at 5 uM by fluorescence based analysis; assay type: cell-based
T2 sequence (Q15910 whole entry, looked up): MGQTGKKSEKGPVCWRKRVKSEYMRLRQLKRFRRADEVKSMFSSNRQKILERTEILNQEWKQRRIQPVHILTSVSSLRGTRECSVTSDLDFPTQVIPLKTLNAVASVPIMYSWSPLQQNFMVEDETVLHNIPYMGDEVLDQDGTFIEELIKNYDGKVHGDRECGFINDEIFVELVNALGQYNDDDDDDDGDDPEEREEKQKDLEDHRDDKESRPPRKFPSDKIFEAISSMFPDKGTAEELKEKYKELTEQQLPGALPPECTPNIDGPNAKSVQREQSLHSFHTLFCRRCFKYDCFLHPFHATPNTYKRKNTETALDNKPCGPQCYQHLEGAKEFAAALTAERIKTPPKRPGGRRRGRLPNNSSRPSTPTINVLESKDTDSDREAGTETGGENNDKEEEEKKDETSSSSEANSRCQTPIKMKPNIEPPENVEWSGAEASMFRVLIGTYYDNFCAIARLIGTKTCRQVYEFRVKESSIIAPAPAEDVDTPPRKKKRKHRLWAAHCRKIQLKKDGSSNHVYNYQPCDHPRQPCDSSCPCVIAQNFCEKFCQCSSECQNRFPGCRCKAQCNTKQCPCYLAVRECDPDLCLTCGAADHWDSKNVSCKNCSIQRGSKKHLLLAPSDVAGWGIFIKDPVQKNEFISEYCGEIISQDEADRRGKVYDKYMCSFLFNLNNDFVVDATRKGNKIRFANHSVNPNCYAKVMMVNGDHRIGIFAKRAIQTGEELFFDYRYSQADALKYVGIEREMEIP

BXPC-3 [12] = assay: Induction of apoptosis in human BXPC-3 cells assessed as early apoptotic cells at 5 uM incubated for 48 hrs by Annexin V-FITC/PI staining based flow cytometric analysis (reference value: 3.28 %); assay type: functional
BXPC-3 [13] = assay: Inhibition of colony formation in human BXPC-3 cells assessed as reduction in number of cell colonies at 2.5 uM incubated for 10 to 14 days by crystal violet staining based analysis; assay type: functional; settings: time 10-14 day
BXPC-3 [14] = assay: Inhibition of colony formation in human BXPC-3 cells incubated for 10 to 14 days in the presence of JQ1 by crystal violet staining based analysis; assay type: functional, cell-based; settings: dose 0.1-2.5 µM, time 10-14 day
MDA-MB-231 [15] = assay: Inhibition of colony formation in human MDA-MB-231 cells incubated for 10 to 14 days in the presence of JQ1 by crystal violet staining based analysis; assay type: functional, cell-based; settings: dose 0.1-2.5 µM, time 10-14 day
BXPC-3 [16] = assay: Inhibition of cell proliferation in human BXPC-3 cells assessed as decrease in c-Myc mRNA level at 5 uM incubated for 48 hrs by qRT-PCR analysis; assay type: functional, cell-based
Mus musculus [17] = assay: In vivo inhibition of EZH2 in Balb/c nude mouse xenografted with human BXPC-3 cells assessed as reduction in H3K27me3 level in tumor at 60 mg/kg, ip administered daily for 30 days by IHC analysis; assay type: functional, organism-based; settings: time 30.0 day
[18] = Toxicity in Balb/c nude mouse xenografted with human BXPC-3 cells assessed as effect on body weight at 60 mg/kg, ip administered daily for 30 days; assay type: organism-based; settings: in vivo, 720 h, time 30 day
BXPC-3 [19] = assay: Inhibition of colony formation in human BXPC-3 cells assessed as reduction in number of cell colony at 0.1 to 2.5 uM incubated for 10 to 14 days in the presence of JQ1 by crystal violet staining based analysis; assay type: functional; settings: dose 0.1-2.5 µM, time 10-14 day
BXPC-3 [20] = assay: Antitumor activity against human BXPC-3 cells xenografted in Balb/c nude mouse assessed as reduction in tumor growth at 60 mg/kg, ip administered daily for 30 days; assay type: functional, organism-based; settings: time 30.0 day
[21] = target: T2, Histone-lysine N-methyltransferase EZH2; assay: Inhibition of EZH2 in human MDA-MB-231 cells assessed as decrease in H3K27me3 level at 5 uM by fluorescence based analysis; assay type: cell-based
MDA-MB-231 [22] = assay: Inhibition of colony formation in human MDA-MB-231 cells assessed as reduction in number of cell colonies at 2.5 uM incubated for 10 to 14 days by crystal violet staining based analysis; assay type: functional; settings: time 10-14 day
[23] = target: T2, Histone-lysine N-methyltransferase EZH2; assay: Inhibition of EZH2 in human BXPC-3 cells assessed as increase in H3K27ac level at 5 uM by fluorescence based analysis; assay type: cell-based
BXPC-3 [24] = assay: Inhibition of cell proliferation in human BXPC-3 cells assessed as decrease in c-Myc protein level at 5 uM incubated for 48 hrs by IHC analysis; assay type: functional, cell-based
BXPC-3 [25] = assay: Induction of apoptosis in human BXPC-3 cells assessed as viable cells at 5 uM incubated for 48 hrs by Annexin V-FITC/PI staining based flow cytometric analysis (reference value: 90.70%); assay type: functional; settings: read-out: Activity
[26] = target: T2, Histone-lysine N-methyltransferase EZH2; assay: Inhibition of EZH2 in human BX-PC-3 cells assessed as decrease in H3K27me3 level at 5 uM by fluorescence based analysis; assay type: cell-based; settings: BXPC-3
Mus musculus [27] = assay: In vivo inhibition of EZH2 in Balb/c nude mouse xenografted with human BXPC-3 cells assessed as increase in H3K27ac level in tumor at 60 mg/kg, ip administered daily for 30 days by IHC analysis; assay type: functional, organism-based; settings: time 30.0 day
MDA-MB-231 [28] = assay: Inhibition of colony formation in human MDA-MB-231 cells assessed as reduction in colony size at 0.1 to 2.5 uM incubated for 10 to 14 days in the presence of JQ1 by crystal violet staining based analysis; assay type: functional, cell-based; settings: dose 0.1-2.5 µM, time 10-14 day
MDA-MB-231 [29] = assay: Induction of apoptosis in human MDA-MB-231 cells assessed as necrotic cells at 5 uM incubated for 48 hrs by Annexin V-FITC/PI staining based flow cytometric analysis (reference value: 0.63%); assay type: functional
MDA-MB-231 [30] = assay: Inhibition of cell proliferation in human MDA-MB-231 cells assessed as decrease in c-Myc mRNA level at 5 uM incubated for 48 hrs by qRT-PCR analysis; assay type: functional, cell-based
BXPC-3 [31] = assay: Induction of apoptosis in human BXPC-3 cells assessed as late apoptotic cells at 5 uM incubated for 48 hrs by Annexin V-FITC/PI staining based flow cytometric analysis (reference value: 4.38 %); assay type: functional

CCC(C)n1cc(C)c2c(C(=O)NCc3c(C)cc(C)[nH]c3=O)cc(-c3ccc(N4CCNCC4)nc3)cc21 (stereo unspecified)
inhibition (MDA-MB-231 [1]): inactive | inhibition (BXPC-3 [2]): inactive | inhibition (MDA-MB-231 [3]): inactive | inhibition (MDA-MB-231 [4]): Active | Activity (BXPC-3 [5]): 0.98% | Activity (MDA-MB-231 [6]): 1.83% | Activity (MDA-MB-231 [7]): 0.92% | viability at 5 µM (MDA-MB-231 [8]): 97% | IC50 [9]: 124 nM | inhibition (BXPC-3 [10]): Active | inhibition [11]: Active | Activity (BXPC-3 [12]): 3.18% | inhibition (BXPC-3 [13]): inactive | inhibition (BXPC-3 [14]): Dose-Dependent Effect | inhibition (MDA-MB-231 [15]): Dose-Dependent Effect | inhibition (BXPC-3 [16]): inactive | inhibition (Mus musculus [17]): Active | Activity [18]: Non-Toxic | inhibition (BXPC-3 [19]): Active | Activity (BXPC-3 [20]): inactive | inhibition [21]: Active | inhibition (MDA-MB-231 [22]): inactive | inhibition [23]: Active | inhibition (BXPC-3 [24]): inactive | viability at 5 µM (BXPC-3 [25]): 91.9% | inhibition [26]: Active | inhibition (Mus musculus [27]): Active | inhibition (MDA-MB-231 [28]): Active | Activity (MDA-MB-231 [29]): 0.3% | inhibition (MDA-MB-231 [30]): inactive | Activity (BXPC-3 [31]): 3.86%
